The results in this text go back to patent US12180184B2, “Pyrimidopyrazolone derivative as Wee1 inhibitor and use thereof” (Wuxi Biocity Biopharmaceutics Co., Ltd., priority 2018, dated 2024).

Structures are written as SMILES.

One test has as its target T1, Wee1 (Homo sapiens, UniProt P30291).
T1 construct: Eurofins
Put plainly: In vitro enzyme inhibitory activity, Wee1 kinase radiometric ([33P]-ATP) assay at Eurofins. It is filed as biochemical. To be noted: in vitro enzymatic activity; 40 min at room temperature, peptide substrate 500 μM. The protocol:
The compounds used for experiments were all prepared in-house, and their chemical names and structural formulas were shown in the preparation examples for each compound. The experimental tests were carried out in Eurofins, which provided the experimental results.
In the Wee1 reaction system, 20 mM Tris-HCl, pH 8.5, 0.2 mM EDTA, 500 μM polypeptide substrate ([…]) (Sequence ID No. 1), 10 mM magnesium acetate and a certain concentration of […] (intensity of about 500 cpm/pmol) were added. Addition of Mg^2+ and ATP mixed solution initiated the reaction. Incubation was performed at room temperature for 40 min and 3% phosphate buffer was added to terminate the reaction. 10 μL of the reaction solution was filtered on a continuous filter P30, and washed with 75 mM phosphate buffer three times, and washed with methanol once, 5 min for each time. After drying, the scintillation counting was used to read the values.

In test [1] the test system is Human pancreatic cancer PC-07-0049 subcutaneously transplanted tumor. Put plainly: In vivo pharmacodynamics study on human pancreatic cancer PC-07-0049 subcutaneously transplanted tumor model in nude mice. Set-up: species or system BALB/c nude mice. The settings on record: for TGI (%): PC-07-0049 tumor in BALB/c nude mice. From the text:
Procedures: The selected experimental animals were BALB/c nude mice (6 animals per group), 6-8 weeks old, weigh 16-21 grams.
The establishment of the Human pancreatic carcinoma PC-07-0049 model was originally derived from surgically excised clinical samples, which was defined as the P0 generation after implantation in nude mice. The implantation of the tumor tissue of P0 generation into the next generation was defined as the P1 generation. The implantation was continued in nude mice in this way. The tumor of FP3 was revived through the P2 generation. The next generation generated by the FP3 generation was defined as FP4, and so on. The tumor tissue of the FP5 generation will be used for the drug efficacy test.
The PC-07-0049 FP5 tumor tissue was cut into small pieces (20-30 mm^3) after removing the necrotic tissue and was inoculated subcutaneously on the right back of each nude mouse. When the average tumor volume reached about 193 mm^3, according to the tumor volume, the animals were divided into random groups and administered.
The experimental index was to investigate whether tumor growth was inhibited, delayed or cured. The diameters of the tumors were measured with a vernier caliper twice a week. The tumor suppression efficacy of the compound was evaluated by TGI (%) or the relative tumor proliferation rate T/C (%). TGI (%) reflects the tumor growth inhibition rate. Calculation of TGI (%): TGI (%)=[(1−(Average tumor volume at the end of a treatment group−average tumor volume at the beginning of the treatment group))/(Average tumor volume at the end of treatment in the solvent control group−the average tumor volume at the beginning of treatment in the solvent control group)]×100%.

T1 sequence (P30291 whole entry): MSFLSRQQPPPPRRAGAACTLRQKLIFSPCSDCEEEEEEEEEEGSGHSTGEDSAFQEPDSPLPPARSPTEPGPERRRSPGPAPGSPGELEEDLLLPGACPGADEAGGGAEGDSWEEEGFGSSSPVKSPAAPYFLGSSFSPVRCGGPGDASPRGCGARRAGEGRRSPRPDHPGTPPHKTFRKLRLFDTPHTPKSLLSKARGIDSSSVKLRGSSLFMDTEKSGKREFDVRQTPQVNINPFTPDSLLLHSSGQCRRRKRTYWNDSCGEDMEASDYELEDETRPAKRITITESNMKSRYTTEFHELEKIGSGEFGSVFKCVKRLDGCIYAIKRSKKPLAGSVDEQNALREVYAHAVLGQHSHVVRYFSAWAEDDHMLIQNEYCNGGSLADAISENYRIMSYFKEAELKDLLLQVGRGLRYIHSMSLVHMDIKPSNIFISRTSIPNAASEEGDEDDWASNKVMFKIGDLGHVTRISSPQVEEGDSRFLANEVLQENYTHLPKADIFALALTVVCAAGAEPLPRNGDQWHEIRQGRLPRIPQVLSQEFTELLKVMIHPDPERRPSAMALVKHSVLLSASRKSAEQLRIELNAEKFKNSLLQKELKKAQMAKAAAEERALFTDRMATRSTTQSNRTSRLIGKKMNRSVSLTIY

Regarding `CN1CCN(c2ccc(Nc3ncc4c(=O)n5n(c4n3)-c3cccc(n3)[C@](C)(O)CC/C=C(\F)C5)cc2)CC1` [Compound 5], the half-inhibitory concentration (IC50) – broadly, the concentration that inhibits the measured activity by half – on Wee1 stood at 43 nM. The same measure, in the same setting: with `CN1CCC(n2ccc3cc(Nc4ncc5c(=O)n6n(c5n4)-c4cccc(n4)[C@](C)(O)CC/C=C(/F)C6)ccc32)CC1` [Compound 2] the figure was 37 nM; with `C/C1=C/CC[C@@](C)(O)c2cccc(n2)-n2c3nc(Nc4ccc(N5CCN(C)CC5)cc4)ncc3c(=O)n2C1` [Compound 1], 130 nM; with `CN1CCN(c2ccc(Nc3ncc4c(=O)n5n(c4n3)-c3cccc(n3)[C@@](C)(O)CC/C=C(/F)C5)cc2)CC1` [Compound 4], 110 nM. With `Nc1ccn([C@@H]2O[C@H](CO)[C@@H](O)C2(F)F)c(=O)n1` [Gemcitabine, reference compound], the “TGI (%)” value in test [1] (gemcitabine alone, 20 mg/kg twice per week) was determined as 58%.

Regarding `CN1CCN(c2ccc(Nc3ncc4c(=O)n5n(c4n3)-c3cccc(n3)[C@](C)(O)CC/C=C(/F)C5)cc2)CC1` [Compound 3], the “inhibitory effect on mouse tumor (in words)” value in test [1] (combination of compound 3 and gemcitabine compared with gemcitabine alone, conclusion drawn from Table 2) was “significantly improve the inhibitory effect on mouse tumor”. Also, the “TGI (%)” value in test [1] (compound 3 50 mg/kg once per day in combination with gemcitabine 20 mg/kg twice per week) is reported as 102%. The compound also had an IC50 on Wee1 of 28 nM.
